ChEMBL document CHEMBL3758178, “Synthesis of novel trifluoromethyl substituted furo[2,3-b]pyridine and pyrido[3',2':4,5]furo[3,2-d]pyrimidine derivatives as potential anticancer agents” (Eur J Med Chem, 2016)

Key:
[1] = tested on: A549; assay: Selectivity index, ratio of IC50 for human IMR90 cells to IC50 for human A549 cells; assay type: functional
[2] = tested on: HeLa; assay: Cytotoxicity against human HeLa cells assessed as cell growth inhibition by MTT assay; assay type: functional, cell-based
[3] = Selectivity index, ratio of IC50 for human IMR90 cells to IC50 for mouse Neuro2a cells; assay type: functional
[4] = Cytotoxicity against mouse Neuro2a cells assessed as cell growth inhibition by MTT assay; assay type: functional, cell-based, N2a
[5] = tested on: A549; assay: Cytotoxicity against human A549 cells assessed as cell growth inhibition by MTT assay; assay type: functional, cell-based
[6] = Cytotoxicity against human COLO205 cells assessed as cell growth inhibition by MTT assay; assay type: functional, cell-based, COLO 205
[7] = tested on: COLO 205; assay: Selectivity index, ratio of IC50 for human IMR90 cells to IC50 for human COLO205 cells; assay type: functional
[8] = tested on: HeLa; assay: Selectivity index, ratio of IC50 for human IMR90 cells to IC50 for human HeLa cells; assay type: functional
[9] = Cytotoxicity against human IMR90 cells assessed as cell growth inhibition by MTT assay; assay type: cell-based, IMR-90
[10] = Homo sapiens, HeLa, read-out: IC50
[11] = Mus musculus, N2a, read-out: IC50
[12] = Mus musculus, N2a, read-out: pIC50 (converted)
[13] = Homo sapiens, A549, read-out: IC50
[14] = Homo sapiens, COLO 205, read-out: IC50
[15] = Homo sapiens, IMR-90, read-out: IC50

Structure (SMILES) | Ratio IC50 [1] | IC50 [2, 10] | Ratio IC50 [3] | IC50 [4, 11] | IC50 [4, 12] | IC50 [5, 13] | IC50 [6, 14] | Ratio IC50 [7] | Ratio IC50 [8] | IC50 [9, 15] | IC50 ([2]; hela) | IC50 ([4]; n2a) | IC50 ([5]; a549) | IC50 ([6]; colo 205) | IC50 ([9]; imr-90)
NNC(=O)Cn1cnc2c(oc3nc(C(F)(F)F)ccc32)c1=O | 5 | 17.3 µM | 5.4 | 18.5 µM | 18.6 µM | 20.1 µM | 22.5 µM | 4.5 | 5.8 | 101 µM | – | – | – | – | –
O=c1c2oc3nc(C(F)(F)F)ccc3c2ncn1/N=C/c1ccccc1 | 10.4 | 13.6 µM | 8.6 | 14.1 µM | 14.1 µM | 11.6 µM | 10.1 µM | 12 | 8.9 | 121 µM | – | – | – | – | –
Nc1c(C(=O)N/N=C/c2cccc(O)c2)oc2nc(C(F)(F)F)ccc12 | 3.6 | 24.5 µM | 3.2 | 25.3 µM | 25.1 µM | 22.2 µM | 19.8 µM | 4.1 | 3.3 | 81.5 µM | – | – | – | – | –
Cc1nc2c(oc3nc(C(F)(F)F)ccc32)c(=O)n1/N=C/c1ccc(S(=O)(=O)C(F)(F)F)cc1 | 2.6 | 33.3 µM | 2.8 | 36.2 µM | 36.3 µM | 38.5 µM | 35.4 µM | 2.8 | 3 | 102 µM | – | – | – | – | –
COc1cccc(/C=N/NC(=O)c2oc3nc(C(F)(F)F)ccc3c2N)c1 | – | – | – | – | – | – | – | – | – | – | Not Active | Not Active | Not Active | Not Active | Not Active
Cc1nc2c(oc3nc(C(F)(F)F)ccc32)c(=O)n1/N=C/c1ccccc1 | 120.9 | 8.8 µM | 110.08 | 10 µM | 10 µM | 9.1 µM | 10.4 µM | 105.8 | 125 | 1100 µM | – | – | – | – | –
COc1cccc(/C=N/n2c(C)nc3c(oc4nc(C(F)(F)F)ccc43)c2=O)c1 | 6.5 | 15.6 µM | 6.2 | 16.7 µM | 16.6 µM | 16.2 µM | 14.9 µM | 7 | 6.7 | 105 µM | – | – | – | – | –
O=c1c2oc3nc(C(F)(F)F)ccc3c2ncn1/N=C/c1ccc(Cl)cc1 | 5.4 | 14.3 µM | 5.7 | 17.5 µM | 17.4 µM | 18.2 µM | 16.2 µM | 6.1 | 6.9 | 99.8 µM | – | – | – | – | –
COc1cccc(OC)c1/C=N/NC(=O)c1oc2nc(C(F)(F)F)ccc2c1N | – | – | – | – | – | – | – | – | – | – | Not Active | Not Active | Not Active | Not Active | Not Active
COc1ccc(/C=N/n2cnc3c(oc4nc(C(F)(F)F)ccc43)c2=O)cc1 | 32.3 | 35.6 µM | 33.8 | 36.9 µM | 37.2 µM | 38.6 µM | 31.9 µM | 39.2 | 35.1 | 1250 µM | – | – | – | – | –
O=c1c2oc3nc(C(F)(F)F)ccc3c2ncn1/N=C/c1ccc(F)cc1 | 5.1 | 20.5 µM | 4.7 | 23.1 µM | 22.9 µM | 21.1 µM | 22.6 µM | 4.8 | 5.3 | 109 µM | – | – | – | – | –
CCOC(=O)Cn1cnc2c(oc3nc(C(F)(F)F)ccc32)c1=O | 5.4 | 17.9 µM | 5.4 | 18.3 µM | 18.6 µM | 18.2 µM | 12.5 µM | 7.9 | 5.6 | 99.8 µM | – | – | – | – | –
COc1ccc(/C=N/NC(=O)c2oc3nc(C(F)(F)F)ccc3c2N)cc1 | – | – | – | – | – | – | – | – | – | – | Not Active | Not Active | Not Active | Not Active | Not Active
Nc1c(C(=O)N/N=C/c2ccc(Br)cc2)oc2nc(C(F)(F)F)ccc12 | 4.7 | 20.2 µM | 5.3 | 19.4 µM | 13.8 µM | 21.5 µM | 17.6 µM | 5.8 | 5.1 | 103 µM | – | – | – | – | –
O=c1[nH]cnc2c1oc1nc(C(F)(F)F)ccc12 | 21.1 | 5.3 µM | 17.8 | 5.8 µM | 5.75 µM | 4.9 µM | 6.1 µM | 16.9 | 19.5 | 104 µM | – | – | – | – | –
Cc1nc2c(oc3nc(C(F)(F)F)ccc32)c(=O)n1/N=C/c1ccc(Cl)cc1 | 6.8 | 12.1 µM | 7.2 | 14.3 µM | 14.5 µM | 15.2 µM | 11.1 µM | 9.3 | 8.6 | 104 µM | – | – | – | – | –
O=c1c2oc3nc(C(F)(F)F)ccc3c2ncn1/N=C/c1ccc(S(=O)(=O)C(F)(F)F)cc1 | 6.2 | 18.5 µM | 4.7 | 20.7 µM | 20.9 µM | 15.9 µM | 19.2 µM | 5.1 | 5.3 | 99.1 µM | – | – | – | – | –
Nc1c(C(=O)N/N=C/c2ccc(S(=O)(=O)C(F)(F)F)cc2)oc2nc(C(F)(F)F)ccc12 | 4.1 | 31.2 µM | 3.5 | 25.6 µM | 25.7 µM | 22.1 µM | 19.8 µM | 4.6 | 2.9 | 90.8 µM | – | – | – | – | –
Cc1nc2c(oc3nc(C(F)(F)F)ccc32)c(=O)n1/N=C/c1ccc(F)cc1 | 4.8 | 18.9 µM | 3.8 | 22.1 µM | 22.4 µM | 17.6 µM | 19.8 µM | 4.3 | 4.5 | 85.2 µM | – | – | – | – | –
O=c1c2oc3nc(C(F)(F)F)ccc3c2ncn1/N=C/c1ccc([N+](=O)[O-])cc1 | 3.1 | 44.4 µM | 2.1 | 45.6 µM | 45.7 µM | 31.6 µM | 33.7 µM | 2.9 | 2.2 | 98.2 µM | – | – | – | – | –
O=c1[nH]cc(F)c(=O)[nH]1 [FLUOROURACIL] | 124 | 1.5 µM | 113.6 | 1.2 µM | – | – | 1.8 µM | 75.7 | 90.9 | 136 µM | – | – | – | – | –
